The values that follow come from US20050244906A1, “Detection kit, assay plate to be used therein, detection method, evaluation method, polyclonal antibody of frog vitellogenin and process for producing the same” (priority 2002, published 2005).

Test [1] has as its system hepatocyte in primary culture of an adult male Xenopus laevis. Type of test: cell-based.
From the text: Furthermore, by use of the assay system, the antagonist activity of a target substance could be evaluated.
For test [2] the test system is unchanged. In words: VTG synthesis induction in primary hepatocyte culture, VTG in culture liquid by ELISA. Type of test: cell-based. The note with it: for estrogenic activity detected, equivalent E2 concentration: primary hepatocyte culture. The method, then: • 10×perfusate (0.14% KCl, 5.5% NaCl, 0.44% pyruvate, 1% glucose, 2.38% HEPES, 5% BSA and 0.2% NaHCO3) • Collagenase perfusate (1×perfusate is controlled to pH 7.2 to 7.5 with phenol red to prepare a solution of 0.1% collagenase. Filtration and sterilization) • Culture liquid (50% L-15, 1 μg/ml insulin, 0.5% glucose and antibiotics) B: Sampling Method of Hepatocyte […] A frog is sterilized in potassium permanganate (5 mg/ml) for 2 hr or more (superficial skin color becomes brown). 2. An anesthetic (20 mg/ml-aminobenzoic acid ethylester) is injected by 0.5 to 1.0 ml to an abdominal cavity. 3. A ventral skin is thoroughly sterilized with a cotton bud wetted with alcohol, followed by operating. 4. A heart is exposed, a syringe is inserted from a cardiac chamber, and a collagenase perfusate is sent in through a hepatic vein by use of a […] pump to perfuse a liver. 5. The liver is taken out and transferred in a beaker, followed by cutting small with a pair of scissors. 6. Transferring into an L-tube together with a small amount of collagenase perfusate. 7. Shaking for 30 to 60 min in an incubator at 24 degrees centigrade. 8. Suspending thoroughly with a pipette, followed by filtering through a nylon mesh. 9. A slight amount of culture liquid is added, followed by centrifuging at 300 rpm for 1 to 2 min. […] A centrifugal supernatant is sucked and removed, followed by centrifuging a culture liquid once more (this operation is repeated twice). 11. […] 12. Seeding every 100 to 300 μl to a microplate (substantially 20,000 pieces/well is better). 13. Cultivating in an incubator at 24 degrees centigrade. […] In the case of the E2 processing, it is known that from the third day on after the processing vitellogenin can be detected in the culture liquid; however, since survived hepatocytes in culture are stable for three weeks, for the test of a substance low in the activity, evaluation is carried out for a longer period. As one of applications of the ELISA KIT, an application to the quantification of VTG concentration in a liquid Xenopus laevis hepatocyte culture was studied as well. […] Of a culture liquid after 6 days from the start of culturing (exchanged on the third day), the quantification of the VTG concentration was carried out with the ELISA KIT. By combining the exposure test to hepatocytes in primary culture and the ELISA, an application to a quantitative screening method of the estrogen activity of various chemicals was studied. […] According to a method similar to (Example 2-2), primary cultured hepatocytes of an adult male Xenopus laevis were prepared, followed by culturing in a culture liquid containing one of the chemicals, and with a culture liquid after 6 days, according to the ELISA, a VTG concentration in the culture liquid was quantified.

The test system of test [3] is adult male Xenopus laevis. In words: Exposure in water of adult male Xenopus laevis; vitellogenin quantified by ELISA sandwich method. It is filed as in vivo. The method, then:
Adult male Xenopus laevis of same age (two years and half old) were used. Every five thereof were bred in each of a water bath where one in which in 20 L of dechlorinated tap water E2 dissolved in DMSO was added was filled (experimental group) and a water bath where one in which in 20L of dechlorinated tap water the same amount of DMSO that is a solvent was added is filled (comparative group). Exposure concentrations of the E2 were five levels of 0.1 nM, 1 nM, 10 nM, 100 nM and 1000 nM, and, at 3.5 days during a breeding period of 7 days, the breeding water was once exchanged. A water temperature was set at 22 degrees centigrade, bright and dark periods each were set at 12 hr, and during a test period bait was not fed.
At the detection of the vitellogenin, two samples of a blood serum and a liver homogenate were used and compared to study.
A. Sampling of Blood Serum
1. To an abdominal cavity of a frog, 0.5 to 1.0 ml of an anesthetic agent (20 mg/ml aminobenzoic acid ethyl ester) was injected.
2. An operation was performed, and 0.2 ml of blood was sampled from a pulsating heart with a syringe in a tube and placed on ice.
3. A centrifugal process was applied at 15000 rpm, at 4 degrees centigrade for 10 min, followed by sampling a supernatant.
4. Dilution was applied at a factor of 10 with a 20 mM of an EDTA-0.2 percent Tween 20-PBS solution followed by refrigerating and preserving (in the case of long preservation, by freezing and preserving).
The diluted sample was quantified of the vitellogenin according to the ELISA sandwich method.
1. After the sampling of blood, a liver piece was cut to substantially 0.05 to 0.1 g followed by weighing.
2. In a tube where the liver piece put, 1 ml of 20 mM EDTA-0.5% Tween 20-PBS solution was added.
3. The liver was homogenized over ice.
4. A centrifugal process was applied at 15000 rpm, at 4 degrees centigrade for 10 min, followed by sampling a supernatant, further followed by refrigerating and preserving (in the case of long preservation, by freezing and preserving).
The diluted sample was quantified of the vitellogenin by ELISA sandwich.
For orientation: ELISA stands for enzyme-linked immunosorbent assay.

Test [4] has as its system adult male Xenopus laevis. Nature of the test: Injection method in adult male Xenopus laevis; vitellogenin quantified by ELISA sandwich method. It is filed as in vivo. The method, then: Adult male Xenopus laevis same in the age as A were used. Five thereof in which an E2 solution was injected by means of injection (experimental group) and another five thereof in which propylene glycol that was a solvent was injected by use of an injection by substantially 200 μl (comparative group) were bred in a glass water bath filled with 20 L of dechlorinated tap water. Exposure concentrations of E2 were five levels of 0.002 μg/g BW, 0.02 μg/g BW, 0.2 μg/g BW, 2 μg/g BW and 20 μg/g BW, and, during a breeding period of 7 days, reinjection was once (at 3.5 days) applied. A water temperature was set at 22 degrees centigrade, bright and dark periods each were set at 12 hr, and during a test period bait was not fed. At the injection, individual organisms were measured of weight and substantially 200 μl of the E2 solution was injected so as to be a set concentration. At the detection of the vitellogenin, two samples of a blood serum and a liver homogenate were used and compared to study. A. Sampling of Blood Serum 1. To an abdominal cavity of a frog, 0.5 to 1.0 ml of an anesthetic agent (20 mg/ml aminobenzoic acid ethyl ester) was injected. 2. An operation was performed, and 0.2 ml of blood was sampled from a pulsating heart with a syringe in a tube and placed on ice. 3. […] The diluted sample was quantified of the vitellogenin according to the ELISA sandwich method.

Where two headings read alike, the source gives them in different places.

As to `CC(C)(c1ccc(O)cc1)c1ccc(O)cc1` [BPA, bisphenol A], the “antagonist activity on VTG synthesis induction due to 5 nM E2” value in test [1] (co-culture with 5 nM E2, increasing concentration of added chemical) is listed as “antagonistic activity was exhibited”.

Regarding `C[C@]12CC[C@@H]3c4ccc(O)cc4CC[C@H]3[C@@H]1CC[C@@H]2O` [E2, 17β-estradiol], in test [2] (cultivated hepatocyte), the “concentration at which vitellogenin synthesis reaches the maximum” value is given as “lower than 1000 nM”. Further, the “exposure concentration giving significant concentration-dependent increase in vitellogenin concentration” value in test [2] (hepatocyte in culture, culture liquid, ELISA) is listed as no less than 0.6 nM. Moreover, the figures for the “estrogenic activity detected, equivalent E2 concentration” value in test [2] (ELISA KIT) and in test [2] (ELISA with biotinylated antibody) were roughly 0.1 nM and roughly 0.03 nM, respectively. Further, the “E2 concentration at which blood plasma VTG / VTG synthesis induction can be detected with the ELISA KIT” value in test [3] (exposure in water for 7 days, adult male, ELISA KIT) was no less than 1 nM. In test [3] (exposure in water, 7 days, 100 nM), the “vitellogenin response at 100 nM” value is on record as “obviously rose high”. In test [3] (exposure in water, 7 days, 1000 nM), the “vitellogenin synthesis at 1000 nM” value was “does not increase”. In test [3] (exposure in water, 7 days, adult male), the “E2 concentration from which vitellogenin response was observed” value is reported as no less than 10 nM. Moreover, in test [3] (exposure method in water), the “concentration range of abrupt rise of vitellogenin” value fell in the range of 10 to 100 nM. The “production quantity of the vitellogenin” value is reported as roughly 13000 μg/ml in test [3] (exposure method in water, 100 nM) and roughly 14000 μg/ml in test [4] (at 73 nM (assumed uniform diffusion in body)). The “dose dependence of vitellogenin response” value in test [4] is recorded as “increased dependent on an administered amount”.

nonylphenol [NP]: the “antagonist activity on VTG synthesis induction due to 5 nM E2” value in test [1] is “antagonistic activity was exhibited”.
